Tested on: Male Sprague-Dawley rats
Assay: EEG/EMG sleep recording in rats: time in NREMS for 12 hours after PO dosing
Type: in vivo, rat
Conditions: for Total Minutes (Mean ± SEM) NREMS for 12-Hour Postinjection: rats, N = 8/Treatment, just prior to onset of light phase
Experimental: Male Sprague-Dawley rats weighing 250 to 360 g were used for the experiment. The rats were kept on a 12:12-hr light/dark cycle (lights on at 0900) at 23±1° C. ambient temperature. They had free access water and food during the experiment. Stainless steel jewelry screws for EEG recording were placed over the frontal and parietal cortices. An EMG electrode was implanted in the dorsal neck muscles.
Recording and analyses. After the recovery period (at least 1 week), rats were moved to sleep recording chambers. The rats were allowed relatively unrestricted movement inside the recording cages. A flexible tether connected the electrodes led to an electronic swivel. The leads from the swivel were routed to Grass Model No. 7D polygraphs in an adjacent room for recording EEG and EMG activity. The vigilance states of wakefulness, nonrapid-eye-movement sleep (NREMS), and rapid-eye-movement sleep (REMS) were determined offline in 10 second epochs. The amount of time spent in each vigilance state was calculated every hour and totaled for the 12-hour period post injection. Drug or vehicle were administered PO just prior to the onset of the light phase of the rat's light/dark cycle. Each rat received a vehicle and one drug dose. Results

Row | SMILES | Total Minutes (Mean ± SEM) NREMS for 12-Hour Postinjection (1 mg/kg PO) | Total Minutes (Mean ± SEM) NREMS for 12-Hour Postinjection (3 mg/kg PO) | Total Minutes (Mean ± SEM) NREMS for 12-Hour Postinjection (10 mg/kg PO) | Effect on NREMS in rats during the 12-hour period following injection (rats, 1, 3, and 20 mg/kg PO) | Total Minutes (Mean ± SEM) NREMS for 12-Hour Postinjection (30 mg/kg PO) | Effect on NREMS in rats during the 12-hour period following injection (rats, 3, 10, and 30 mg/kg PO)
1 | CCC[C@@H](C)C[C@H](CN)CC(=O)O [Compound 2, (3S, 5R)-3-Aminomethyl-5-methyl-octanoic acid] | 432 ± 8 min | 451 ± 9 min | 481 ± 6 min | significantly increased NREMS |  | 
2 | C[C@H]1CC(CN)(CC(=O)O)C[C@@H]1C [Compound 1] |  | 401 ± 8 min | 409 ± 12 min |  | 424 ± 6 min | significantly increased NREMS
